In EP0377642B1, “HERBICIDES FOR WEED CONTROL IN RICE” (E.I. DU PONT DE NEMOURS AND COMPANY, priority 1987, dated 1989):
Like-named read-outs stand apart in the source and are kept apart here.

Assays:
Format in all cases: in vivo
[1] = test system: Barnyardgrass (Echinochloa crus-galli); experiment: Field test applied 7 DAS in direct seeded rice in the Philippines, cover (Table 14); settings: 47 DAA
Source text: (§1) Methyl 2-[[[[(4-methoxy-6-methyl-1,3,5-triazin-2-yl)amino]carbonyl]amino]sulfonyl]benzoate (Compound 1) and mixtures thereof with other compounds were applied as a spray (using a hand sprayer) to rice (either transplanted or direct seeded) in several rice growing areas in Southeast Asia and in the U.S. Tables 1-28 contain the results of these tests and clearly exemplify the utility of this invention. The details of each application are included in the appropriate table. [drawing 2]

SEDGE = experiment: as above; settings: 47 DAA
Source text: as §1

Cyperus difformis [2] = experiment: Field test applied at 7 DAS in direct seeded rice (Table 11); settings: 4 GM.A.I./HA, scale 0-10
Source text: as §1

Sphenoclea zeylanica [3] = experiment: as above; settings: 4 GM.A.I./HA, scale 0-10
Source text: as §1

WEED [4] = experiment: Effects in combination with Bensulfuron Methyl and Thiobencarb or Pretilachlor on weed control (Table 24); settings: rate 2 g ai/ha, scale 0 to 10, treated at 1.0 leaf stage, evaluated four weeks later
Source text: as §1

WEED [5] = experiment: Field test applied 7 DAS in direct seeded rice in the Philippines, weed cover (Table 14); settings: 47 DAA
Source text: as §1

Cyperus iria [6] = experiment: Field test with Bensulfuron methyl in direct seeded rice (Table 10); settings: 10 = complete control
Source text: as §1

Marsilea crenata = experiment: as above; settings: 10 = complete control
Source text: as §1

Sphenoclea zeylanica [7] = experiment: as above; settings: 10 = complete control
Source text: as §1

rice [8] = experiment: Herbicidal efficacy with Bensulfuron methyl and 2,4-D in Thailand (Table 19); settings: 4 GAI/HA; 13 days after treatment
Source text: as §1

Cuperus difformis = experiment: as above; settings: 4 GAI/HA; 13 days after treatment
Source text: as §1

Sphenoclea zeylanica [9] = experiment: as above; settings: 4 GAI/HA; 13 days after treatment
Source text: as §1

WEED [10] = experiment: Effects in combination with Bensulfuron Methyl and Thiobencarb or Pretilachlor on weed control (Table 25); settings: rate 2 g ai/ha, scale 0 to 10, treated at 2.0 leaf stage, evaluated four weeks later
Source text: as §1

rice [11] = experiment: Effects in combination with Bensulfuron Methyl and Thiobencarb or Pretilachlor on rice growth (Table 23); settings: rate 2 g ai/ha; var. Koshihikari, applied 7 days after transplanting, rated 21 days after application
Source text: as §1

direct seeded rice [12] = experiment: Field test applied 7 DAS in direct seeded rice in the Philippines, phytotoxicity (Table 14); settings: 30 DAA
Source text: as §1

direct seeded rice [13] = experiment: Field test with Bensulfuron methyl in direct seeded rice, yield (Table 10)
Source text: as §1

Cyperus iria [14] = experiment: Field test applied at 25 DAS in direct seeded rice (Table 13); settings: 4 GM.A.I./HA, scale 0-10
Source text: as §1

Sphenoclea zeylanica [15] = experiment: as above; settings: 4 GM.A.I./HA, scale 0-10
Source text: as §1

rice [16] = experiment: Herbicidal efficacy with Bensulfuron methyl and 2,4-D in Thailand (Table 20); settings: 4 GAI/HA; 14 days after treatment
Source text: as §1

Cuperus iria = experiment: as above; settings: 4 GAI/HA; 14 days after treatment
Source text: as §1

FIMBRISTYLIS MILIACEA [17] = experiment: as above; settings: 4 GAI/HA; 14 days after treatment
Source text: as §1

Sphenoclea zeylanica [18] = experiment: as above; settings: 4 GAI/HA; 14 days after treatment
Source text: as §1

Ludwigia linifolia = experiment: as above; settings: 4 GAI/HA; 14 days after treatment
Source text: as §1

Echinochloa colonum = experiment: Late-post application in Beaumont, Texas, with 0.25% AG-98 (Table 9); settings: 70 days after seeding
Source text: as §1

Cyperus iria [19] = experiment: Field test applied at 18 DAS in direct seeded rice (Table 12); settings: 4 GM.A.I./HA, scale 0-10
Source text: as §1

FIMBRISTYLIS MILIACEA [20] = experiment: as above; settings: 4 GM.A.I./HA, scale 0-10
Source text: as §1

Sphenoclea zeylanica [21] = experiment: as above; settings: 4 GM.A.I./HA, scale 0-10
Source text: as §1

Jussiaea linifolia = experiment: as above; settings: 4 GM.A.I./HA, scale 0-10
Source text: as §1

direct seeded rice [22] = settings: 4 GM.A.I./HA; for PHYTO at 2WAA: scale 0-10
Source text: as §1

rice [23] = experiment: Herbicidal efficacy with Bensulfuron methyl and 2,4-D in Thailand (Table 18); settings: 4 GAI/HA; 13 days after treatment
Source text: as §1

Cyperus difformis [24] = experiment: as above; settings: 4 GAI/HA; 13 days after treatment
Source text: as §1

Sphenoclea zeylanica [25] = experiment: as above; settings: 4 GAI/HA; 13 days after treatment
Source text: as §1

COC(=O)c1ccccc1S(=O)(=O)NC(=O)Nc1nc(C)nc(OC)n1 [Compound 1, Methyl 2-[[[[(4-methoxy-6-methyl-1,3,5-triazin-2-yl)amino]carbonyl]amino]sulfonyl]benzoate]
% BYG COVER ([1]; 1.65 G AI/HA): 26% | % BYG COVER ([1]; 2.40 G AI/HA): 35% | % BYG COVER ([1]; 3.33 G AI/HA): 35% | % SEDGE COVER (SEDGE; 1.65 G AI/HA): 5% | % SEDGE COVER (SEDGE; 2.40 G AI/HA): 6% | % SEDGE COVER (SEDGE; 3.33 G AI/HA): 4% | WEED CONTROL at 6 WAA CD (Cyperus difformis [2]): 10 | WEED CONTROL at 6 WAA SZ (Sphenoclea zeylanica [3]): 10 | WEED CONTROL RATINGS CD (WEED [4]; Cyperus difformis): 10 | WEED CONTROL RATINGS CS (WEED [4]; Cyperus serotinus): 1 | WEED CONTROL RATINGS EO (WEED [4]; Echinochloa oryzicola): 1 | WEED CONTROL RATINGS BL (WEED [4]; Lindernia pyxidaria): 10 | WEED CONTROL RATINGS MV (WEED [4]; Monochoria vaginalis): 10 | WEED CONTROL RATINGS SP (WEED [4]; Sagittaria pygmaea): 8 | WEED CONTROL RATINGS SJ (WEED [4]; Scirpus juncoides): 7 | % WEED COVER (WEED [5]; 1.65 G AI/HA): 29% | % WEED COVER (WEED [5]; 2.40 G AI/HA): 35% | % WEED COVER (WEED [5]; 3.33 G AI/HA): 35% | WEEDS CONTROL at 4 WAA CI (Cyperus iria [6]; 2 GAI/HA): 0 | WEEDS CONTROL at 4 WAA CI (Cyperus iria [6]; 4 GAI/HA): 0 | WEEDS CONTROL at 4 WAA MC (Marsilea crenata; 2 GAI/HA): 10 | WEEDS CONTROL at 4 WAA MC (Marsilea crenata; 4 GAI/HA): 10 | WEEDS CONTROL at 4 WAA SZ (Sphenoclea zeylanica [7]; 2 GAI/HA): 7.93 | WEEDS CONTROL at 4 WAA SZ (Sphenoclea zeylanica [7]; 4 GAI/HA): 9.33 | % CONTROL OR INJURY RICE (rice [8]): 0% | % CONTROL OR INJURY CD (Cuperus difformis): 100% | % CONTROL OR INJURY SZ (Sphenoclea zeylanica [9]): 93% | WEED CONTROL RATINGS CD (WEED [10]; Cyperus difformis): 7 | WEED CONTROL RATINGS CS (WEED [10]; Cyperus serotinus): 0 | WEED CONTROL RATINGS EO (WEED [10]; Echinochloa oryzicola): 1 | WEED CONTROL RATINGS BL (WEED [10]; Lindernia pyxidaria): 10 | WEED CONTROL RATINGS MV (WEED [10]; Monochoria vaginalis): 10 | WEED CONTROL RATINGS SP (WEED [10]; Sagittaria pygmaea): 8 | WEED CONTROL RATINGS SJ (WEED [10]; Scirpus juncoides): 6 | CROP TOLERANCE DW (Dry weight relative to untreated check) (rice [11]): 73% | CROP TOLERANCE PH (Plant height relative to untreated check) (rice [11]): 86% | CROP TOLERANCE VA (Visual crop injury) (rice [11]): 3% | PHYTO (1-9) (direct seeded rice [12]; 1.65 G AI/HA): 2 | PHYTO (1-9) (direct seeded rice [12]; 2.40 G AI/HA): 2.3 | PHYTO (1-9) (direct seeded rice [12]; 3.33 G AI/HA): 3.3 | YIELD (direct seeded rice [13]; 2 GAI/HA): 3.62 TONS/HA | YIELD (direct seeded rice [13]; 4 GAI/HA): 3.62 TONS/HA | WEED CONTROL at 6 WAA CI (Cyperus iria [14]): 0 | WEED CONTROL at 6 WAA SZ (Sphenoclea zeylanica [15]): 9.53 | % CONTROL OR INJURY RICE (rice [16]): 0% | % CONTROL OR INJURY CI (Cuperus iria): 0% | % CONTROL OR INJURY FM (FIMBRISTYLIS MILIACEA [17]): 0% | % CONTROL OR INJURY SZ (Sphenoclea zeylanica [18]): 60% | % CONTROL OR INJURY LL (Ludwigia linifolia): 67% | % INJURY OR CONTROL EC (Echinochloa colonum; 3 G/HA): 26% | % INJURY OR CONTROL EC (Echinochloa colonum; 6 G/HA): 30% | % INJURY OR CONTROL EC (Echinochloa colonum; 12 G/HA): 24% | WEED CONTROL at 6 WAA CI (Cyperus iria [19]): 0.33 | WEED CONTROL at 6 WAA FM (FIMBRISTYLIS MILIACEA [20]): 0 | WEED CONTROL at 6 WAA SZ (Sphenoclea zeylanica [21]): 6.33 | WEED CONTROL at 6 WAA JL (Jussiaea linifolia): 7.67 | YIELD (direct seeded rice [22]; 7 DAS): 4.90 TONS/HA | PHYTO at 2WAA (direct seeded rice [22]; 7 DAS): 0 | YIELD (direct seeded rice [22]; 18 DAS): 4.65 TONS/HA | PHYTO at 2WAA (direct seeded rice [22]; 18 DAS): 0 | YIELD (direct seeded rice [22]; 25 DAS): 5.04 TONS/HA | PHYTO at 2WAA (direct seeded rice [22]; 25 DAS): 0 | % CONTROL OR INJURY RICE (rice [23]): 0% | % CONTROL OR INJURY CD (Cyperus difformis [24]): 100% | % CONTROL OR INJURY SZ (Sphenoclea zeylanica [25]): 98%
